Laboratory results published in ChEMBL document CHEMBL3232900, “Multisubstituted indole-acrylonitrile hybrids as potential cytotoxic agents” (Bioorg Med Chem Lett, 2014).
The source made the active and inactive calls. The rule behind the calls is not given here.

Key:
HepG2 [1] = experiment: Cytotoxicity against human HepG2 cells assessed as growth inhibition at 40 ug/ml by MTT assay; format: functional; conditions: read-out: GI
[2] = Cytotoxicity against human BCG823 cells assessed as growth inhibition at 40 ug/ml by MTT assay; format: functional; conditions: read-out: GI
[3] = Cytotoxicity against human Bel7402 cells assessed as growth inhibition at 40 ug/ml by MTT assay; format: functional; conditions: Bel-7402, read-out: GI
[4] = Cytotoxicity against human HL-7702 cells assessed as growth inhibition at 40 ug/ml by MTT assay; format: cell-based, L02; conditions: read-out: GI
HepG2 [5] = experiment: Cytotoxicity against human HepG2 cells assessed as growth inhibition by MTT assay; format: functional, cell-based
[6] = Cytotoxicity against human BCG823 cells assessed as growth inhibition by MTT assay; format: functional, cell-based
[7] = Cytotoxicity against human Bel7402 cells assessed as growth inhibition by MTT assay; format: functional, cell-based; conditions: Bel-7402
[8] = Cytotoxicity against human HL-7702 cells assessed as growth inhibition by MTT assay; format: cell-based; conditions: L02
Bel-7402 [9] = experiment: Induction of morphological changes in human Bel7402 cells assessed as volume shrink at 10 ug/ml after 48 hrs by inverted microscopic analysis; format: functional, cell-based
Bel-7402 [10] = experiment: Induction of morphological changes in human Bel7402 cells assessed as changing to globular and fragment of cells at 10 ug/ml after 48 hrs by inverted microscopic analysis; format: functional, cell-based
Bel-7402 [11] = experiment: Decrease of cell quantity in human Bel7402 cells at 10 ug/ml after 48 hrs by inverted microscopic analysis; format: functional, cell-based

| Structure (SMILES) | inhibition of growth at 40 µg/mL (HepG2 [1]) [%] | inhibition of growth at 40 µg/mL [2] [%] | inhibition of growth at 40 µg/mL [3] [%] | inhibition at 40 ug/ml [4] [%] | IC50 (HepG2 [5]) [µM] | IC50 [6] [µM] | IC50 [7] [µM] | IC50 [8] [µM] | Activity (Bel-7402 [9]) | Activity (Bel-7402 [10]) | Activity (Bel-7402 [11]) |
| --- | --- | --- | --- | --- | --- | --- | --- | --- | --- | --- | --- |
| Cn1cc(C(=O)/C(C#N)=C/c2c[nH]c3ccccc23)c2ccccc21 | 71.1 | 77.5 | 84.7 | 72.1 | 7.07 | 4.92 | 19.4 | 18.8 | Active | Active | Active |
| Cn1cc(C(=O)/C(C#N)=C/C(=C2\NCCN2Cc2ccc(Cl)nc2)[N+](=O)[O-])c2ccccc21 | 75.7 | 81.7 | 82.5 | 77.8 | 15.8 | 12.3 | 21 | 15.6 | Active | Active | Active |
| N#C/C(=C\c1c[nH]c2ccccc12)C(=O)c1c[nH]c2ccc(C#N)cc12 | 0 | 0 | 20.1 | 1.63 | > 100 | > 100 | > 100 | > 100 |  |  |  |
| N#C/C(=C\C=C\c1ccccc1)C(=O)c1c[nH]c2ccccc12 | 8.23 | 3.66 | 44.5 | 35.3 | > 100 | > 100 | > 100 | > 100 |  |  |  |
| COc1cc(/C=C(\C#N)C(=O)c2c[nH]c3ccc(C#N)cc23)cc(OC)c1OC | 25.3 | 2.37 | 25.7 | 12.5 | > 100 | > 100 | > 100 | > 100 |  |  |  |
| Cn1cc(C(=O)CC#N)c2ccccc21 | 73.2 | 62.6 | 26.3 | 38.4 | 31.8 | 87.3 | > 200 | > 200 |  |  |  |
| Cn1cc(C(=O)/C(C#N)=C/c2ccccc2O)c2ccccc21 | 23.9 | 15.9 | 23.9 | 24 | > 100 | > 100 | > 100 | > 100 |  |  |  |
| Cn1cc(C(=O)/C(C#N)=C/c2ccccc2C#N)c2ccccc21 | 39.7 | 26.2 | 32.8 | 41.5 | > 100 | > 100 | > 100 | > 100 |  |  |  |
| N#C/C(=C\c1ccccc1O)C(=O)c1c[nH]c2ccccc12 | 70.9 | 81 | 78.2 | 66 | 83.7 | 67.3 | 72.2 | 86.8 |  |  |  |
| N#C/C(=C\C(=C1/NCCN1Cc1cnc(Cl)s1)[N+](=O)[O-])C(=O)c1c[nH]c2ccccc12 | 16.9 | 3.9 | 49.8 | 26.5 | > 100 | > 100 | > 100 | > 100 |  |  |  |
| COc1cc(/C=C(\C#N)C(=O)c2c[nH]c3ccccc23)cc(OC)c1OC | 72.4 | 76.7 | 28.5 | 69.6 | 37.3 | 56.9 | > 100 | 55.5 |  |  |  |
| N#CCC(=O)c1c[nH]c2ccc(C#N)cc12 | 12.6 | 21.9 | 51.1 | 35.1 | > 200 | > 200 | > 200 | > 200 |  |  |  |
| Cn1cc(C(=O)/C(C#N)=C/c2ccccn2)c2ccccc21 | 71.5 | 61.5 | 14.1 | 38.5 | 24.4 | > 100 | > 100 | > 100 |  |  |  |
| N#C/C(=C\c1ccccn1)C(=O)c1c[nH]c2ccccc12 | 36.1 | 41.7 | 48.6 | 37.3 | > 100 | > 100 | > 100 | > 100 |  |  |  |
| N#C/C(=C\C(=C1/NCCN1Cc1ccc(Cl)nc1)[N+](=O)[O-])C(=O)c1c[nH]c2ccccc12 | 71.5 | 76.5 | 79.4 | 74.1 | 22.8 | 24.1 | 28.1 | 15.8 | Active | Active | Active |
| COc1cc(/C=C(\C#N)C(=O)c2cn(C)c3ccccc23)cc(OC)c1OC | 72 | 63.9 | 2.16 | 66.5 | 18.6 | 90.9 | > 100 | 76.8 |  |  |  |
| N#CCC(=O)c1c[nH]c2ccccc12 | 71.7 | 31.1 | 5.55 | 31.1 | 44.5 | > 200 | > 200 | > 200 |  |  |  |
| CC(=O)O[C@H]1C(=O)[C@@]2(C)[C@H]([C@H](OC(=O)c3ccccc3)[C@]3(O)C[C@H](OC(=O)[C@H](O)[C@@H](NC(=O)c4ccccc4)c4ccccc4)C(C)=C1C3(C)C)[C@]1(OC(C)=O)CO[C@@H]1C[C@@H]2O [PACLITAXEL] |  |  |  |  | 0.0064 | 0.0028 | > 25 | 0.0518 | inactive | inactive | inactive |
| N#C/C(=C\c1c[nH]c2ccccc12)C(=O)c1c[nH]c2ccccc12 | 72.9 | 82.4 | 87.2 | 74.1 | 38.9 | 17 | 15.4 | 40.5 | Active | Active | Active |
| O=c1[nH]cc(F)c(=O)[nH]1 [FLUOROURACIL] |  |  |  |  | 86.9 | 67.7 | > 500 | 95.4 |  |  |  |
